Laboratory results taken from PubChem BioAssay (NCI).
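Compound exposure: 48 hours, 5 concentrations, 96-well plates. GI50 marks 50% less growth. Definition used: TGI = concentration required for complete inhibition of growth.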

What was measured:
Assay in all cases: growth of human tumour cells (NCI), 48 h
[1] = system: HCT-116 colon
[2] = system: HOP-62 NSCLC
[3] = system: TK-10 renal
[4] = system: SW-620 colon
[5] = system: SK-MEL-2 melanoma
[6] = system: ACHN renal
[7] = system: SF-295 CNS
[8] = system: HL-60(TB) leukemia
[9] = system: CAKI-1 renal
[10] = system: COLO 205 colon
[11] = system: PC-3 prostate
[12] = system: HS 578T breast
[13] = system: MOLT-4 leukemia
[14] = system: A549 NSCLC
[15] = system: K-562 leukemia
[16] = system: HCT-15 colon
[17] = system: UO-31 renal
[18] = system: HOP-92 NSCLC
[19] = system: SF-539 CNS
[20] = system: MDA-MB-435
[21] = system: MDA-MB-231 breast
[22] = system: SR leukemia
[23] = system: OVCAR-3 ovarian
[24] = system: SK-MEL-5 melanoma
[25] = system: CCRF-CEM leukemia
[26] = system: 786-0 renal
[27] = system: OVCAR-4 ovarian
[28] = system: M14 melanoma
[29] = system: NCI/ADR-RES ovarian
[30] = system: MCF7 breast
[31] = system: OVCAR-8 ovarian
[32] = system: SNB-19 CNS
[33] = system: DU-145 prostate
[34] = system: RPMI-8226 leukemia
[35] = system: SN12C renal
[36] = system: IGROV1 ovarian
[37] = system: LOX IMVI melanoma
[38] = system: SK-MEL-28 melanoma
[39] = system: OVCAR-5 ovarian
[40] = system: SF-268 CNS
[41] = system: UACC-62 melanoma
[42] = system: NCI-H226 lung
[43] = system: UACC-257 melanoma
[44] = system: HCC-2998 colon
[45] = system: BT-549 breast
[46] = system: A498 renal
[47] = system: T-47D breast
[48] = system: SK-OV-3 ovarian
[49] = system: NCI-H460 lung
[50] = system: SNB-75 CNS
[51] = system: EKVX NSCLC
[52] = system: U251 CNS
[53] = system: NCI-H522 lung
[54] = system: KM12 colon
[55] = system: HT29 colon
[56] = system: RXF 393 renal
[57] = system: NCI-H23 lung
[58] = system: MALME-3M melanoma

Cc1ccc(S(=O)(=O)NC2=NCCN2C(=S)SN2CCn3c2nsc3=S)cc1
GI50 [1]: 13.7 µM
TGI [1]: 28.8 µM
GI50 [2]: 22.4 µM
TGI [2]: 57.5 µM
GI50 [3]: 11.1 µM
TGI [3]: 24.7 µM
GI50 [4]: 14.1 µM
TGI [4]: 40.7 µM
GI50 [5]: 28.6 µM
TGI [5]: 89.2 µM
GI50 [6]: 6.56 µM
TGI [6]: 19.6 µM
GI50 [7]: 18.2 µM
TGI [7]: 50.8 µM
GI50 [8]: 11.2 µM
TGI [8]: 55.6 µM
GI50 [9]: 3.47 µM
TGI [9]: 14.6 µM
GI50 [10]: 6.62 µM
TGI [10]: 21.2 µM
GI50 [11]: 17.2 µM
TGI [11]: 51.7 µM
GI50 [12]: 31.4 µM
TGI [12]: > 100 µM
GI50 [13]: 20.6 µM
TGI [13]: > 100 µM
GI50 [14]: 30.4 µM
TGI [14]: 90.2 µM
GI50 [15]: 14.8 µM
TGI [15]: 42.4 µM
GI50 [16]: 15.1 µM
TGI [16]: 31.7 µM
GI50 [17]: 2.93 µM
TGI [17]: 11 µM
GI50 [18]: 24.7 µM
TGI [18]: > 100 µM
GI50 [19]: 22 µM
TGI [19]: 52.7 µM
GI50 [20]: 17.3 µM
TGI [20]: 41.8 µM
GI50 [21]: 15.1 µM
TGI [21]: 38 µM
GI50 [22]: 7.29 µM
TGI [22]: 36.6 µM
GI50 [23]: 10.5 µM
TGI [23]: 27.9 µM
GI50 [24]: 21.8 µM
TGI [24]: 50.3 µM
GI50 [25]: 14 µM
TGI [25]: 51.9 µM
GI50 [26]: 19.1 µM
TGI [26]: 44.4 µM
GI50 [27]: 14 µM
TGI [27]: 28.2 µM
GI50 [28]: 15.2 µM
TGI [28]: 32.1 µM
GI50 [29]: 31.8 µM
TGI [29]: > 100 µM
GI50 [30]: 32.5 µM
TGI [30]: > 100 µM
GI50 [31]: 24.3 µM
TGI [31]: 72.1 µM
GI50 [32]: 28.6 µM
TGI [32]: 83.1 µM
GI50 [33]: 26.4 µM
TGI [33]: > 100 µM
GI50 [34]: 16.7 µM
TGI [34]: 73.2 µM
GI50 [35]: 19.4 µM
TGI [35]: 46.9 µM
GI50 [36]: 14.1 µM
TGI [36]: 34.6 µM
GI50 [37]: 1.92 µM
TGI [37]: 4.25 µM
GI50 [38]: 17.2 µM
TGI [38]: 32.7 µM
GI50 [39]: 20.1 µM
TGI [39]: 40.8 µM
GI50 [40]: 32.4 µM
TGI [40]: 87.2 µM
GI50 [41]: 15.1 µM
TGI [41]: 32.3 µM
GI50 [42]: 19.9 µM
TGI [42]: 50.6 µM
GI50 [43]: 19 µM
TGI [43]: 43.4 µM
GI50 [44]: 21 µM
TGI [44]: 50.6 µM
GI50 [45]: 23.4 µM
TGI [45]: 55.8 µM
GI50 [46]: 28.6 µM
TGI [46]: 68.7 µM
GI50 [47]: 11.3 µM
TGI [47]: 26.2 µM
GI50 [48]: 0.116 µM
TGI [48]: 13.6 µM
GI50 [49]: 31 µM
TGI [49]: > 100 µM
GI50 [50]: 24.7 µM
TGI [50]: 52.9 µM
GI50 [51]: 27.7 µM
TGI [51]: > 100 µM
GI50 [52]: 19.1 µM
TGI [52]: 39 µM
GI50 [53]: 5.01 µM
TGI [53]: 18.8 µM
GI50 [54]: 16.6 µM
TGI [54]: 32.7 µM
GI50 [55]: 29.9 µM
TGI [55]: 97.5 µM
GI50 [56]: 8.17 µM
TGI [56]: 20.9 µM

COc1cc(-c2cc(/C=C/C(=O)c3ccc(N)cc3)[nH]n2)cc(OC)c1OC
GI50 [1]: 1.1 µM
TGI [1]: 2.61 µM
GI50 [2]: 1.77 µM
TGI [2]: 3.92 µM
GI50 [3]: 4.84 µM
TGI [3]: 17.5 µM
GI50 [4]: 2.05 µM
TGI [4]: 6.37 µM
GI50 [5]: 2.85 µM
TGI [5]: 7.53 µM
GI50 [6]: 1.61 µM
TGI [6]: 3.67 µM
GI50 [7]: 2.55 µM
TGI [7]: 10.9 µM
GI50 [8]: 1.74 µM
TGI [8]: 10.8 µM
GI50 [10]: 1.74 µM
TGI [10]: 3.34 µM
GI50 [11]: 2.21 µM
TGI [11]: 10.4 µM
GI50 [12]: 4.33 µM
TGI [12]: > 100 µM
GI50 [13]: 1.91 µM
TGI [13]: 8.51 µM
GI50 [14]: 2.08 µM
TGI [14]: 7.02 µM
GI50 [15]: 0.726 µM
TGI [15]: 23.6 µM
GI50 [57]: 2.48 µM
TGI [57]: 6.79 µM
GI50 [16]: 1.37 µM
TGI [16]: 6.76 µM
GI50 [17]: 1.36 µM
TGI [17]: 2.86 µM
GI50 [18]: 3.68 µM
TGI [18]: 27.6 µM
GI50 [19]: 1.3 µM
TGI [19]: 2.66 µM
GI50 [20]: 1.66 µM
TGI [20]: 3.21 µM
GI50 [21]: 2.06 µM
TGI [21]: 12.2 µM
GI50 [22]: 0.326 µM
TGI [22]: 2.75 µM
GI50 [23]: 1.57 µM
TGI [23]: 3.37 µM
GI50 [24]: 1.65 µM
TGI [24]: 3.06 µM
GI50 [25]: 0.556 µM
TGI [25]: 4.17 µM
GI50 [26]: 2.04 µM
TGI [26]: 6.49 µM
GI50 [27]: 1.4 µM
TGI [27]: 5.44 µM
GI50 [28]: 1.83 µM
TGI [28]: 3.86 µM
GI50 [29]: 3.8 µM
TGI [29]: 65.8 µM
GI50 [30]: 1.5 µM
TGI [30]: 5.42 µM
GI50 [31]: 2.39 µM
TGI [31]: 9.76 µM
GI50 [32]: 2.34 µM
TGI [32]: 9.98 µM
GI50 [58]: 2.05 µM
TGI [58]: 4.71 µM
GI50 [33]: 1.65 µM
TGI [33]: 4.05 µM
GI50 [34]: 0.479 µM
TGI [34]: 2.77 µM
GI50 [35]: 1.86 µM
TGI [35]: 4.52 µM
GI50 [36]: 3.2 µM
TGI [36]: 10.5 µM
GI50 [37]: 1.6 µM
TGI [37]: 3.28 µM
GI50 [38]: 1.86 µM
TGI [38]: 4.08 µM
GI50 [39]: 1.78 µM
TGI [39]: 3.75 µM
GI50 [40]: 1.69 µM
TGI [40]: 3.93 µM
GI50 [41]: 1.7 µM
TGI [41]: 3.58 µM
GI50 [42]: 1.71 µM
TGI [42]: 3.51 µM
GI50 [43]: 1.87 µM
TGI [43]: 4.02 µM
GI50 [44]: 2.01 µM
TGI [44]: 3.63 µM
GI50 [45]: 1.38 µM
TGI [45]: 2.82 µM
GI50 [46]: 1.64 µM
TGI [46]: 4.33 µM
GI50 [47]: 1.42 µM
TGI [47]: 4.3 µM
GI50 [48]: 2.99 µM
TGI [48]: 8.32 µM
GI50 [49]: 1.8 µM
TGI [49]: 5.1 µM
GI50 [52]: 1.42 µM
TGI [52]: 2.77 µM
GI50 [53]: 1.62 µM
TGI [53]: 3.99 µM
GI50 [54]: 1.14 µM
TGI [54]: 2.88 µM
GI50 [55]: 1.85 µM
TGI [55]: 4.82 µM
GI50 [56]: 1.35 µM
TGI [56]: 3.24 µM

CC1=NN(c2nc(N)nc(COCc3nc(N)nc(N4N=C(C)CC4(C)C)n3)n2)C(C)(C)C1
TGI [1]: > 100 µM
TGI [2]: > 100 µM
TGI [3]: > 100 µM
TGI [4]: > 100 µM
TGI [5]: > 100 µM
TGI [6]: > 100 µM
TGI [7]: > 100 µM
TGI [8]: > 100 µM
TGI [9]: > 100 µM
TGI [10]: > 100 µM
TGI [11]: > 100 µM
TGI [12]: > 100 µM
TGI [13]: > 100 µM
TGI [14]: > 100 µM
TGI [15]: > 100 µM
TGI [57]: > 100 µM
TGI [16]: > 100 µM
TGI [17]: > 100 µM
TGI [18]: > 100 µM
TGI [19]: > 100 µM
TGI [20]: > 100 µM
TGI [21]: > 100 µM
TGI [22]: > 100 µM
TGI [23]: > 100 µM
TGI [24]: > 100 µM
TGI [25]: > 100 µM
TGI [26]: > 100 µM
TGI [27]: > 100 µM
TGI [28]: > 100 µM
TGI [29]: > 100 µM
TGI [30]: > 100 µM
TGI [31]: > 100 µM
TGI [32]: > 100 µM
TGI [33]: > 100 µM
TGI [34]: > 100 µM
TGI [35]: > 100 µM
TGI [36]: > 100 µM
TGI [37]: > 100 µM
TGI [38]: > 100 µM
TGI [39]: > 100 µM
TGI [40]: > 100 µM
TGI [41]: > 100 µM
TGI [42]: > 100 µM
TGI [43]: > 100 µM
TGI [44]: > 100 µM
TGI [45]: > 100 µM
TGI [46]: > 100 µM
TGI [47]: > 100 µM
TGI [48]: > 100 µM
TGI [49]: > 100 µM
TGI [50]: > 100 µM
TGI [51]: > 100 µM
TGI [52]: > 100 µM
TGI [53]: > 100 µM
TGI [54]: > 100 µM
TGI [55]: > 100 µM
TGI [56]: > 100 µM
